# According to US20230233545A1, “TREATMENT OF ATRIAL DYSFUNCTION” (MyoKardia, Inc., priority 2020, published 2023):
# What was measured:
# [1] = tested on: beagle dogs under isoflurane anesthesia, right-atrial burst pacing; test: AF inducibility and LA size/function with phenylephrine on board (Example 3)
# [2] = tested on: dogs with microembolization-induced heart failure; test: Echocardiography/haemodynamics in dogs with microembolization-induced heart failure; format: in vivo, beagle dogs; conditions: 2-3 mg/kg orally, 5 hours post-treatment
# Excerpt: Seven male beagle dogs underwent a modified serial coronary microembolization protocol to produce chronic LV dysfunction and HF (Geist et al., J Pharmacol Toxicol Methods (2019) 99:106595), as determined by both LV remodeling and decreases in LV ejection fraction (LVEF). A subset of animals (n=5) were also surgically implanted with a radio-telemetry transmitter (TL11M3-D70-PCTP; Data Sciences Int., MN, USA) to provide systemic arterial blood and LV pressures. The microembolization and instrumentation techniques employed have been previously validated (Hartman et al., JACC Basic Transl Sci. (2018) 3(5):625-38).
# The effects of Compound I (at 2-3 mg/kg oral tablet; n=14) on LV/LA function and geometry, as well as systemic/ventricular haemodynamics, were examined by echocardiography in conscious, lightly sedated animals (butorphanol 0.25-0.5 mg/kg intravenous) before dosing (i.e., baseline) as well at 5 hours post-treatment.
# In these experiments, 2D and 2D-guided M-mode echocardiographic (CX50; Philips Medical System, MA, USA) recordings of LV dimension, LA dimension (LAd) and aortic dimension (Aod), as well as LV volume estimates (Simpson's and Teichholz's methods), were obtained at end-systole/diastole in both short-axis (papillary-level) and/or apical/parasternal long-axis views. From these measurements, LV stroke volume (LVSV), cardiac output (CO), LV fractional shortening (LVFS), LV fractional area of shortening and LVEF, as well as the LAd/Aod ratio, were calculated. LV outflow tract (LVOT) blood velocity (via Doppler) was measured and the LVOT velocity−time integral (LVOT−VTI) calculated. In addition, maximal (end-systolic, LAmax) and minimal (end-diastolic, LAmin) LA volumes were measured using the bi-plane method; both LA emptying fraction (LAEF=100×[LAmax−LAmin]/LAmax) and LA functional index (LAFI=[LAEF×LVOT−VTI]/LAmax index) were calculated (Thomas et al., Eur J Echocardiogr (2008) 9(3):356-362). Diastolic trans-mitral peak flow velocities (E and A), mitral-annulus tissue velocities (e′, s′ and a′), and their ratios during early filling (E/e′), were recorded/used as indices of diastolic performance. In all cases, atrial and ventricular indexed volumes were calculated by normalizing to the estimated body surface area (0.101×[body weight in kg][…]), while reported data were derived by averaging at least three cardiac cycles. Finally, haemodynamic signals were digitally acquired (1000 Hz) and recorded continuously with a data acquisition/analysis system (IOX; EMKA Technologies). Heart rate (HR) and end-systolic and end-diastolic pressures, as well as the peak rates of pressure rise and decline (dP/dtmax and dP/dtmin, respectively), the contractility index (dP/dt/P at dP/dtmax), and the time constant of myocardial relaxation (tau1/2, time for 50% decay from dP/dtmin) were derived from the LV pressure signal. Systolic, diastolic and mean systemic blood pressures, as well as pulse pressures, were derived from the aortic pressure signal. Haemodynamic data were reported as the average over at least 1 minute (at steady state). In vivo data are presented as means (SD) in the text or as mean±SEM in the figures; mean differences between pre- and post-treatment values were evaluated via a two-tailed paired t-test with a significance level of 0.05 set a priori (GraphPad Prism, GraphPad Software Inc., CA, USA).
# [3] = Pharmacokinetics in patients with stable HFrEF; format: in vivo; conditions: human, oral
# Protocol: In the single-ascending dose trial, single fasting doses of Compound I 175-550 mg or placebo were evaluated in a crossover manner in 12 patients over two sequential cohorts (1 and 2), with intervals between singles doses ranging from 3 days (subsequently amended to 5) to 14 days. In Cohort 1, eight patients were enrolled and all received placebo and Compound I 175 mg and 350 mg (in random sequence and in a blinded fashion) during three periods, A-C. Six patients elected to continue into a fourth optional open label period D. Compound I doses administered in the open-label period included: 350 mg (n=1); 450 mg (divided into two administrations; n=1); 525 mg (n=2); and 550 mg (divided into two administrations; n=2). In Cohort 2, four patients were enrolled, and all received placebo and Compound I 400 mg and 500 mg in random sequence (both active 400 mg and 500 mg doses were divided into two administrations).
# For each treatment period, pre-dose assessments followed by administration of single dose were performed on Day 1 in the morning. The patient underwent serial pharmacokinetic (PK), pharmacodynamic (PD [trans-thoracic echocardiography or TTE]), ECG and safety laboratory assessments through Day 1 (until the evening) as well as on Day 2. Patients were discharged on Day 3 morning and returned to the clinic on Day 4 for a final PK assessment, and evaluation of adverse events (AEs). […]
# [4] = 0.3-0.4 mg/kg IV bolus with 0.3/0.4 mg/kg/hr IV infusion, P<0.05
# [5] = IV bolus + infusion with PE vs PE alone, FIG. 4
structure (smiles),measurement,setting,value
"Cn1cc(S(=O)(=O)[C@@](C)(F)C2CCN(C(=O)Nc3ccon3)CC2)c(C(F)F)n1 [Compound I, (R)-4-(1-((3-(difluoromethyl)-1-methyl-1H-pyrazol-4-yl)sulfonyl)-1-fluoroethyl)-N-(isoxazol-3-yl)piperidine-1-carboxamide]","fractional shortening (FS), increase",[1]; [4],13±3%
same,"left-ventricular stroke volume (SV), increase",[1]; [4],16±5%
same,"systolic ejection time (SET), change","[1]; 0.3-0.4 mg/kg IV bolus with 0.3/0.4 mg/kg/hr IV infusion, prolonged, P<0.05",10±3%
same,SBP under Compound I,"[1]; 0.3-0.4 mg/kg IV bolus with IV infusion, PE on board, systemic pressures preserved",135.7±6.2 mmHg
same,LV contractility (ΔEF),"[1]; Compound I, Example 3 protocol, FIG. 6",increase LV contractility
same,atrial emptying fraction (LA EF),[1]; [5],increasing the atrial emptying fraction
same,left-atrial size (LA Volmin),[1]; [5],decreased left-atrial size
same,"AF inducibility (e.g., AF duration)","[1]; IV bolus + infusion with PE vs PE alone, burst pacing, FIG. 4",decreasing AF inducibility
same,LVESD,"[2]; SD ±0.2, baseline 3.4 (±0.2), p<0.05",3.2 cm
same,E/A,"[2]; SD ±0.3, baseline 1.6 (±0.2)",1.6
same,LVEDD,"[2]; SD ±0.3, baseline 4.3 (±0.2)",4.3 cm
same,e′ (mitral annular velocity),"[2]; SD ±1.1, baseline 7.4 (±1.0)",7.3 cm/s
same,a′ (late peak mitral annular velocity),"[2]; SD ±1.3, baseline 4.0 (±1.2), p<0.05",5.4 cm/s
same,"CO (cardiac output, estimated)","[2]; SD ±1.6, baseline 3.4 (±0.9), p<0.05",4.1 L/min
same,LVFS,"[2]; SD ±3.6, baseline 19.6 (±2.7), p<0.05",25.6%
same,LVGCS (LV global circumferential strain),"[2]; SD ±4.4, baseline −13.5 (±4.4), p<0.05",−17.3%
same,LVEF,"[2]; SD ±6, baseline 41 (±5), p<0.05",51%
same,LAFI (left atrial functional index),"[2]; SD ±6.5, baseline 7.7 (±3.3), p<0.05",15.2
same,LAEF (left atrial emptying fraction),"[2]; SD ±6.9, baseline 20.4 (±4.4), p<0.05",31.1%
same,"A (late peak wave velocity, mitral inflow)","[2]; SD ±8, baseline 41 (±6)",46 cm/s
same,LAmin Vol. index (LAminVi),"[2]; SD ±9.0, baseline 21.2 (±8.3), p<0.05",17.9 mL/m^2
same,LAmax Vol. index,"[2]; SD ±9.7, baseline 26.7 (±9.7), p<0.05",25.1 mL/m^2
same,DBP (diastolic blood pressure),"[2]; SD ±13, baseline 66 (±10)",72 mmHg
same,E (early trans-mitral peak wave velocity),"[2]; SD ±40, baseline 71 (±12)",74 cm/s
same,SET (systolic ejection time),"[2]; baseline 178 (±24), p<0.05",200 ms
same,LVSV (left ventricular stroke volume),"[2]; mean, SD ±10.7, baseline 33.0 (±5.9), p<0.05",43.6 mL
same,E/e′,"[2]; n/u, SD ±1.2, baseline 9.7 (±1.9)",10.2
same,LVEDP (LV end-diastolic pressure),"[2]; telemetry subset, SD ±4, baseline 18 (±2)",16 mmHg
same,SBP (systolic blood pressure),"[2]; telemetry subset, SD ±10, baseline 110 (±10)",119 mmHg
same,HR (heart rate),"[2]; telemetry subset, SD ±50, baseline 108 (±45), p<0.05",99 bpm
same,half-life,"[3]; in vivo, patients that received Compound I as part of Cohort 1 (single doses)",20 to 25 h
same,concentration at 7 days,"[3]; plasma, 50 mg BID, with food, read-out: steady-state concentration",2000 to 3500 ng/mL
